{
  "source": "patent US12616665B2",
  "about": "“Neutrophil-to-lymphocyte ratio decreasing agent” (THERABIOPHARMA INC., priority 2020, dated 2026)",
  "test_system": "neutrophil-to-lymphocyte ratio in blood",
  "assay": "Neutrophil-to-lymphocyte ratio in venous blood after four weeks of curcumin-containing capsule intake",
  "type": "in vivo, human",
  "description": "Each of 20 men and women of 60 years old or older was caused to take a curcumin-containing capsule (containing 90 mg of curcumin per capsule) twice a day in the morning and the evening for four weeks (daily dose 180 mg). Venous blood was collected at start and end of administration, and a neutrophil-to-lymphocyte ratio was measured.\nAs a result, in a non-parametric test (Wilcoxon code rank test), the neutrophil-to-lymphocyte ratio at start of administration was 1.7 (1.3, 2.1), whereas the neutrophil-to-lymphocyte ratio at end of administration was 1.4 (1.2, 1.7).",
  "data": [
    {"smiles": "COc1cc(/C=C/C(=O)/C=C(O)/C=C/c2ccc(O)c(OC)c2)ccc1O", "note": "[curcumin]", "values": [
      {"measurement": "neutrophil-to-lymphocyte ratio at end of administration", "setting": "after four weeks, 90 mg curcumin capsule twice a day (daily dose 180 mg), oral, 20 men and women of 60 years old or older, venous blood", "value": "1.4 (1.2, 1.7)"},
      {"measurement": "neutrophil-to-lymphocyte ratio at start of administration", "setting": "baseline, 20 men and women of 60 years old or older, venous blood, spread in brackets not defined", "value": "1.7 (1.3, 2.1)"},
      {"measurement": "change of neutrophil-to-lymphocyte ratio, start vs end of administration", "setting": "four weeks, daily dose 180 mg, non-parametric test (Wilcoxon code rank test)", "value": "significantly decreased"}
    ]}
  ]
}
